Source: patent publication US10869844B2, “Methods for the treatment of depression” (Janssen Pharmaceutica NV, priority 2014, dated 2020)
Read-outs that look alike come from different tables or passages of the source.

Tested on: adult subjects with treatment resistant depression
Type: in vivo, human
Details: for Non-remitters % / Non-remitters No. / Remitters No. (MADRS total score 10) / Remitters % (MADRS total score 10): ketamine pooled 2x/week and 3x/week; for Duration of response, survival function estimate: Failure / Duration of response, survival function estimate: Survival: ketamine responders (Day 29), follow-up phase; for Response rates, Val/Val vs Met carriers: ketamine subjects
Excerpt: This was a double-blind, randomized, placebo-controlled, parallel arm study to assess the safety and efficacy of ketamine dosed 2 or 3 times weekly in adult subjects with treatment resistant depression. The study consisted of up to 4 phases: a screening phase of up to 4 weeks, a 4-week double-blind treatment phase (Day 1 to Day 29), an optional 2-week open label treatment phase, and a post treatment (follow up) phase of up to 3 weeks.
On Day 1 of the double-blind treatment phase, subjects were randomized to receive either i.v. infusions of placebo 2 times weekly or i.v. infusions of placebo 3 times weekly or i.v. infusions of ketamine 0.50 mg/kg, 2 times weekly or i.v. infusions of ketamine 0.50 mg/kg, 3 times weekly over 4 weeks.
Subjects who discontinued the double-blind treatment phase of the study due to lack of efficacy (based upon the clinical judgment of the investigator) after completion of the Day 15 visit, but prior to the Day 29 visit, may have received open-label ketamine treatment with the same dose frequency for an additional 2 weeks. After completing the Early Termination visit, the subject had study assessments as per the Time and Events Schedule for the optional open-label treatment phase followed by one follow up visit performed 1 week after the last dose of study medication.

[1] = Met carriers, DAY 03 or DAY 04, ketamine pooled 2x/wk and 3x/wk
[2] = Met carriers, DAY 08(DB), ketamine pooled 2x/wk and 3x/wk
[3] = Met carriers, DAY 15(DB), ketamine pooled 2x/wk and 3x/wk
[4] = Met carriers, DAY 29(DB), ketamine pooled 2x/wk and 3x/wk
[5] = Met carriers, Day 0 after Day 29
[6] = Met carriers, Day 10 after Day 29
[7] = Met carriers, Day 11 after Day 29
[8] = Val/Val, DAY 03 or DAY 04, ketamine pooled 2x/wk and 3x/wk
[9] = Val/Val, DAY 08(DB), ketamine pooled 2x/wk and 3x/wk
[10] = Val/Val, DAY 15(DB), ketamine pooled 2x/wk and 3x/wk
[11] = Val/Val, DAY 29(DB), ketamine pooled 2x/wk and 3x/wk

CNC1(c2ccccc2Cl)CCCCC1=O (racemic) [Ketamine, ketamine]
Subjects who remain well, number (Met carrier group, at Day 39, from 7): 4
Day 29 responders who maintain response status during the follow-up phase, % (Met carriers (of 8)): 62.5%
Day 29 responders who maintain response status during the follow-up phase, number (Met carriers (of 8)): 5
Non-remitters % (Met carriers, DAY 03 or DAY 04): 100.0%
Non-remitters No. (Met carriers, DAY 03 or DAY 04): 13
Remitters No. (MADRS total score 10) (Met carriers, DAY 03 or DAY 04): 0
MADRS total score change from baseline, Mean [1]: −6.85
MADRS total score, Mean [1]: 25.92
Non-responders % [1]: 92.3%
Non-responders N [1]: 12
Responders % (MADRS total score reduction ≥50%) [1]: 7.7%
Responders N (MADRS total score reduction ≥50%) [1]: 1
Non-remitters % (Met carriers, DAY 08(DB)): 72.7%
Non-remitters No. (Met carriers, DAY 08(DB)): 8
Remitters % (MADRS total score 10) (Met carriers, DAY 08(DB)): 27.3%
Remitters No. (MADRS total score 10) (Met carriers, DAY 08(DB)): 3
MADRS total score change from baseline, Mean [2]: −15.64
MADRS total score, Mean [2]: 17.00
Non-responders % [2]: 54.5%
Non-responders N [2]: 6
Responders % (MADRS total score reduction ≥50%) [2]: 45.5%
Responders N (MADRS total score reduction ≥50%) [2]: 5
Non-remitters % (Met carriers, DAY 15(DB)): 54.5%
Non-remitters No. (Met carriers, DAY 15(DB)): 6
Remitters % (MADRS total score 10) (Met carriers, DAY 15(DB)): 45.5%
Remitters No. (MADRS total score 10) (Met carriers, DAY 15(DB)): 5
MADRS total score change from baseline, Mean [3]: −17.45
MADRS total score, Mean [3]: 15.18
Non-responders % [3]: 45.5%
Non-responders N [3]: 5
Responders % (MADRS total score reduction ≥50%) [3]: 54.5%
Responders N (MADRS total score reduction ≥50%) [3]: 6
Non-remitters % (Met carriers, DAY 29(DB)): 33.3%
Non-remitters No. (Met carriers, DAY 29(DB)): 3
Remitters % (MADRS total score 10) (Met carriers, DAY 29(DB)): 66.7%
Remitters No. (MADRS total score 10) (Met carriers, DAY 29(DB)): 6
MADRS total score change from baseline, Mean [4]: −22.00
MADRS total score, Mean [4]: 10.78
Non-responders % [4]: 11.1%
Non-responders N [4]: 1
Responders % (MADRS total score reduction ≥50%) [4]: 88.9%
Responders N (MADRS total score reduction ≥50%) [4]: 8
Duration of response, survival function estimate: Failure [5]: 0
Duration of response, survival function estimate: Survival [5]: 1.0000
Duration of response, survival function estimate: Failure [6]: 0.2857
Duration of response, survival function estimate: Survival [6]: 0.7143
Duration of response, survival function estimate: Failure [7]: 0.4286
Duration of response, survival function estimate: Survival [7]: 0.5714
Day 29 responders who maintain response status during the follow-up phase, % (Val/Val (of 14)): 64.3%
Day 29 responders who maintain response status during the follow-up phase, number (Val/Val (of 14)): 9
Ketamine responders on Day 29, number (Val/Val and Met carriers together): 22
Non-remitters % (Val/Val, DAY 03 or DAY 04): 95.2%
Non-remitters No. (Val/Val, DAY 03 or DAY 04): 20
Remitters % (MADRS total score 10) (Val/Val, DAY 03 or DAY 04): 4.8%
Remitters No. (MADRS total score 10) (Val/Val, DAY 03 or DAY 04): 1
MADRS total score change from baseline, Mean [8]: −12.67
MADRS total score, Mean [8]: 22.29
Non-responders % [8]: 71.4%
Non-responders N [8]: 15
Responders % (MADRS total score reduction ≥50%) [8]: 28.6%
Responders N (MADRS total score reduction ≥50%) [8]: 6
Non-remitters % (Val/Val, DAY 08(DB)): 80.0%
Non-remitters No. (Val/Val, DAY 08(DB)): 16
Remitters % (MADRS total score 10) (Val/Val, DAY 08(DB)): 20.0%
Remitters No. (MADRS total score 10) (Val/Val, DAY 08(DB)): 4
MADRS total score change from baseline, Mean [9]: −16.65
MADRS total score, Mean [9]: 18.50
Non-responders % [9]: 60.0%
Non-responders N [9]: 12
Responders % (MADRS total score reduction ≥50%) [9]: 40.0%
Responders N (MADRS total score reduction ≥50%) [9]: 8
Non-remitters % (Val/Val, DAY 15(DB)): 77.8%
Non-remitters No. (Val/Val, DAY 15(DB)): 14
Remitters % (MADRS total score 10) (Val/Val, DAY 15(DB)): 22.2%
Remitters No. (MADRS total score 10) (Val/Val, DAY 15(DB)): 4
MADRS total score change from baseline, Mean [10]: −18.50
MADRS total score, Mean [10]: 16.11
Non-responders % [10]: 33.3%
Non-responders N [10]: 6
Responders % (MADRS total score reduction ≥50%) [10]: 66.7%
Responders N (MADRS total score reduction ≥50%) [10]: 12
Non-remitters % (Val/Val, DAY 29(DB)): 35.3%
Non-remitters No. (Val/Val, DAY 29(DB)): 6
Remitters % (MADRS total score 10) (Val/Val, DAY 29(DB)): 64.7%
Remitters No. (MADRS total score 10) (Val/Val, DAY 29(DB)): 11
MADRS total score change from baseline, Mean [11]: −26.59
MADRS total score, Mean [11]: 9.59
Non-responders % [11]: 17.6%
Non-responders N [11]: 3
Responders % (MADRS total score reduction ≥50%) [11]: 82.4%
Responders N (MADRS total score reduction ≥50%) [11]: 14
Duration of response, survival function estimate: Failure (Val/Val, Day 0 after Day 29): 0
Duration of response, survival function estimate: Survival (Val/Val, Day 0 after Day 29): 1.0000
Duration of response, survival function estimate: Failure (Val/Val, Day 4 after Day 29): 0.1429
Duration of response, survival function estimate: Survival (Val/Val, Day 4 after Day 29): 0.8571
Duration of response, survival function estimate: Failure (Val/Val, Day 16 after Day 29): 0.2208
Duration of response, survival function estimate: Survival (Val/Val, Day 16 after Day 29): 0.7792
Duration of response, survival function estimate: Failure (Val/Val, Day 18 after Day 29): 0.3321
Duration of response, survival function estimate: Survival (Val/Val, Day 18 after Day 29): 0.6679
Duration of response, survival function estimate: Failure (Val/Val, Day 38 after Day 29): 1.0000
Duration of response, survival function estimate: Survival (Val/Val, Day 38 after Day 29): 0
Subjects who remain well, number (Val/Val, by Day 44, of 14): 12
Reduction in MADRS total score, Val/Val vs Met carriers (ketamine pooled 2x/wk and 3x/wk, over time): Larger reductions in MADRS total score over most time points were observed in Val/Val carriers as compared to those Met carriers
Response rates, Val/Val vs Met carriers (Day 3 or Day 4 and Day 15): response rates were higher on Day 3 or Day 4 and Day 15 in Val/Val subjects than in Met carriers
Response rates, Val/Val vs Met carriers (Days 8 and 29): response rates were similar on Days 8 and 29
